Data published in patent US7118895B2, “Process for producing aglycon by using diglycosidase and flavor-improved food containing the aglycon and converting agent to be used in the process” (Amano Enzyme Inc., priority 2000, dated 2006).

Experiments:
[1] = test system: Diglycosidase derived from P. multicolor; test: Reactivity toward various isoflavone glycosides (HPLC); format: biochemical, Penicillium multicolor; parameters: glucoside / aglycon: unit not given here; details: 55 °C, pH 4.0
Experimental: (§1) Diglycosidase was diluted with an acetate buffer of pH 4.0 to prepare a 0.75 AU/mL enzyme solution. As references, a similar operation was conducted using β-glucosidase (manufactured by Fluka) derived from Aspergillus niger, β-glucosidase (manufactured by Sigma) derived from almond, β-xylosidase derived from pectinase G (manufactured by Amano Enzyme Inc.). Each of purified products of isoflavone glycosides (glycitin, acetylglycitin, malonylglycitin, daidzin, acetyldaidzin, malonyldaidzin, genistin, acetylgenistin, malonylgenistin, all manufactured by Nacalai Tesque, Inc.) was dissolved in methanol to prepare each 2 mM substrate solution. The reaction was carried out by mixing 10 μL of a substrate solution, 200 μL of 20 mM acetate buffer (pH 4.0), and 40 μL of each purified enzyme solution at a total liquid volume of 250 μL. The reaction was carried out at 55° C. and isolation of an aglycon isoflavone from an isoflavone glycoside in the reaction mixture was detected by HLPC at 0, 1, 3, and 6 hours of the reaction.
(§2) To the reaction mixture was added 700 μL of ethanol, followed by stirring and ultrasonication. After centrifugation at 15,000 rpm and 4° C. for 10 minutes, the supernatant was filtered through a filter and then the filtrate was applied to HPLC.
(§3) The isoflavone glycoside and aglycon isoflavone contained in the filtrate was separated and detected by a high performance liquid chromatography (HPLC, Shimadzu CLASS LC-10 system) using TOSOH TSK gel ODS-80TM column (manufactured by Tosoh Corporation). […] The absorbance at 260 nm was detected by a UV detector (Shimadzu, SPD-10AV). Using purified products (manufactured by Nacalai Tesque, Inc.) of the above isoflavone glycosides and aglycon isoflavones, the isoflavone glycoside and aglycon isoflavone were quantitatively determined according to a calibration curve method. By the way, unless otherwise stated, the measuring conditions of HPLC herein mean those described in the example.

[2] = test system: β-Glucosidase derived from A. niger; test: as above; format: biochemical, Aspergillus niger; parameters: glucoside / aglycon: unit not given here; details: 55 °C, pH 4.0
Experimental: as §1, §2, §3

Crude diglycosidase = test: Examination of substrate concentration in the conversion into isoflavone aglycons by diglycosidase using soybean materials; format: biochemical, Penicillium multicolor IAM7153;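 on Decomposition efficiency: ratio of each glycoside/aglycon within its isoflavone family: percent of the isoflavone family total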
Procedure, shortened: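 Soybean materials (roasted soy flour, soymilk, defatted soybean, concentrated soy protein) at 2–30% (w/v) in 20 mM acetate pH 4.0 were reacted with crude diglycosidase at 55° C with shaking; enzyme solution added was 1.88 AU/mL. Samples taken at 0, 1, 3 and 6 h were ethanol-extracted and analyzed by HPLC.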

aglycon ([1]; Reaction time 0 h): 0 | glucoside ([1]; Reaction time 0 h): 100 | aglycon ([1]; Reaction time 1 h): 99.8 | glucoside ([1]; Reaction time 1 h): 0.2 | aglycon ([1]; Reaction time 3 h): 99.9 | glucoside ([1]; Reaction time 3 h): 0.1 | aglycon ([1]; Reaction time 6 h): 99.8 | glucoside ([1]; Reaction time 6 h): 0.2 | aglycon ([2]; Reaction time 0 h): 0 | glucoside ([2]; Reaction time 0 h): 100 | aglycon ([2]; Reaction time 1 h): 1.4 | glucoside ([2]; Reaction time 1 h): 98.6 | aglycon ([2]; Reaction time 3 h): 3.3 | glucoside ([2]; Reaction time 3 h): 96.7 | aglycon ([2]; Reaction time 6 h): 6.2 | glucoside ([2]; Reaction time 6 h): 93.8 | Decomposition efficiency: ratio of each glycoside/aglycon within its isoflavone family (Crude diglycosidase; concentrated soybean protein, substrate concentration 2%, heat treatment of enzyme no, reaction time 0 h): 42.9% | Decomposition efficiency: ratio of each glycoside/aglycon within its isoflavone family (Crude diglycosidase; concentrated soybean protein, substrate concentration 2%, heat treatment of enzyme no, reaction time 1 h): 20.0% | Decomposition efficiency: ratio of each glycoside/aglycon within its isoflavone family (Crude diglycosidase; concentrated soybean protein, substrate concentration 2%, heat treatment of enzyme no, reaction time 3 h): 8.3% | Decomposition efficiency: ratio of each glycoside/aglycon within its isoflavone family (Crude diglycosidase; concentrated soybean protein, substrate concentration 2%, heat treatment of enzyme no, reaction time 6 h): 3.3% | Decomposition efficiency: ratio of each glycoside/aglycon within its isoflavone family (Crude diglycosidase; concentrated soybean protein, substrate concentration 2%, heat treatment of enzyme yes, reaction time 6 h): 41.3% | Decomposition efficiency: ratio of each glycoside/aglycon within its isoflavone family (Crude diglycosidase; concentrated soybean protein, substrate concentration 5%, heat treatment of enzyme no, reaction time 0 h): 43.1% | Decomposition efficiency: ratio of each glycoside/aglycon within its isoflavone family (Crude diglycosidase; concentrated soybean protein, substrate concentration 5%, heat treatment of enzyme no, reaction time 1 h): 36.4% | Decomposition efficiency: ratio of each glycoside/aglycon within its isoflavone family (Crude diglycosidase; concentrated soybean protein, substrate concentration 5%, heat treatment of enzyme no, reaction time 3 h): 26.3% | Decomposition efficiency: ratio of each glycoside/aglycon within its isoflavone family (Crude diglycosidase; concentrated soybean protein, substrate concentration 5%, heat treatment of enzyme no, reaction time 6 h): 17.8% | Decomposition efficiency: ratio of each glycoside/aglycon within its isoflavone family (Crude diglycosidase; concentrated soybean protein, substrate concentration 5%, heat treatment of enzyme yes, reaction time 6 h): 41.7% | Decomposition efficiency: ratio of each glycoside/aglycon within its isoflavone family (Crude diglycosidase; concentrated soybean protein, substrate concentration 10%, heat treatment of enzyme no, reaction time 0 h): 43.4% | Decomposition efficiency: ratio of each glycoside/aglycon within its isoflavone family (Crude diglycosidase; concentrated soybean protein, substrate concentration 10%, heat treatment of enzyme no, reaction time 1 h): 42.8% | Decomposition efficiency: ratio of each glycoside/aglycon within its isoflavone family (Crude diglycosidase; concentrated soybean protein, substrate concentration 10%, heat treatment of enzyme no, reaction time 3 h): 37.3% | Decomposition efficiency: ratio of each glycoside/aglycon within its isoflavone family (Crude diglycosidase; concentrated soybean protein, substrate concentration 10%, heat treatment of enzyme no, reaction time 6 h): 33.2% | Decomposition efficiency: ratio of each glycoside/aglycon within its isoflavone family (Crude diglycosidase; concentrated soybean protein, substrate concentration 10%, heat treatment of enzyme yes, reaction time 6 h): 42.8% | Decomposition efficiency: ratio of each glycoside/aglycon within its isoflavone family (Crude diglycosidase; concentrated soybean protein, substrate concentration 20%, heat treatment of enzyme no, reaction time 0 h): 43.7% | Decomposition efficiency: ratio of each glycoside/aglycon within its isoflavone family (Crude diglycosidase; concentrated soybean protein, substrate concentration 20%, heat treatment of enzyme no, reaction time 1 h): 47.0% | Decomposition efficiency: ratio of each glycoside/aglycon within its isoflavone family (Crude diglycosidase; concentrated soybean protein, substrate concentration 20%, heat treatment of enzyme no, reaction time 3 h): 44.6% | Decomposition efficiency: ratio of each glycoside/aglycon within its isoflavone family (Crude diglycosidase; concentrated soybean protein, substrate concentration 20%, heat treatment of enzyme no, reaction time 6 h): 42.3% | Decomposition efficiency: ratio of each glycoside/aglycon within its isoflavone family (Crude diglycosidase; concentrated soybean protein, substrate concentration 20%, heat treatment of enzyme yes, reaction time 6 h): 43.2% | Decomposition efficiency: ratio of each glycoside/aglycon within its isoflavone family (Crude diglycosidase; concentrated soybean protein, substrate concentration 30%, heat treatment of enzyme no, reaction time 0 h): 43.5% | Decomposition efficiency: ratio of each glycoside/aglycon within its isoflavone family (Crude diglycosidase; concentrated soybean protein, substrate concentration 30%, heat treatment of enzyme no, reaction time 1 h): 65.3% | Decomposition efficiency: ratio of each glycoside/aglycon within its isoflavone family (Crude diglycosidase; concentrated soybean protein, substrate concentration 30%, heat treatment of enzyme no, reaction time 3 h): 61.0% | Decomposition efficiency: ratio of each glycoside/aglycon within its isoflavone family (Crude diglycosidase; concentrated soybean protein, substrate concentration 30%, heat treatment of enzyme no, reaction time 6 h): 55.9% | Decomposition efficiency: ratio of each glycoside/aglycon within its isoflavone family (Crude diglycosidase; concentrated soybean protein, substrate concentration 30%, heat treatment of enzyme yes, reaction time 6 h): 42.4% | Decomposition efficiency: ratio of each glycoside/aglycon within its isoflavone family (Crude diglycosidase; roasted soy flour, substrate concentration 2%, heat treatment of enzyme no, reaction time 0 h): 44.7% | Decomposition efficiency: ratio of each glycoside/aglycon within its isoflavone family (Crude diglycosidase; roasted soy flour, substrate concentration 2%, heat treatment of enzyme no, reaction time 1 h): 10.6% | Decomposition efficiency: ratio of each glycoside/aglycon within its isoflavone family (Crude diglycosidase; roasted soy flour, substrate concentration 2%, heat treatment of enzyme no, reaction time 3 h): 5.0% | Decomposition efficiency: ratio of each glycoside/aglycon within its isoflavone family (Crude diglycosidase; roasted soy flour, substrate concentration 2%, heat treatment of enzyme no, reaction time 6 h): 1.5% | Decomposition efficiency: ratio of each glycoside/aglycon within its isoflavone family (Crude diglycosidase; roasted soy flour, substrate concentration 2%, heat treatment of enzyme yes, reaction time 6 h): 45.0% | Decomposition efficiency: ratio of each glycoside/aglycon within its isoflavone family (Crude diglycosidase; roasted soy flour, substrate concentration 5%, heat treatment of enzyme no, reaction time 0 h): 44.7% | Decomposition efficiency: ratio of each glycoside/aglycon within its isoflavone family (Crude diglycosidase; roasted soy flour, substrate concentration 5%, heat treatment of enzyme no, reaction time 1 h): 22.1% | Decomposition efficiency: ratio of each glycoside/aglycon within its isoflavone family (Crude diglycosidase; roasted soy flour, substrate concentration 5%, heat treatment of enzyme no, reaction time 3 h): 15.2% | Decomposition efficiency: ratio of each glycoside/aglycon within its isoflavone family (Crude diglycosidase; roasted soy flour, substrate concentration 5%, heat treatment of enzyme no, reaction time 6 h): 9.2% | Decomposition efficiency: ratio of each glycoside/aglycon within its isoflavone family (Crude diglycosidase; roasted soy flour, substrate concentration 5%, heat treatment of enzyme yes, reaction time 6 h): 44.7% | Decomposition efficiency: ratio of each glycoside/aglycon within its isoflavone family (Crude diglycosidase; roasted soy flour, substrate concentration 10%, heat treatment of enzyme no, reaction time 0 h): 38.2% | Decomposition efficiency: ratio of each glycoside/aglycon within its isoflavone family (Crude diglycosidase; roasted soy flour, substrate concentration 10%, heat treatment of enzyme no, reaction time 1 h): 33.3% | Decomposition efficiency: ratio of each glycoside/aglycon within its isoflavone family (Crude diglycosidase; roasted soy flour, substrate concentration 10%, heat treatment of enzyme no, reaction time 3 h): 25.3% | Decomposition efficiency: ratio of each glycoside/aglycon within its isoflavone family (Crude diglycosidase; roasted soy flour, substrate concentration 10%, heat treatment of enzyme no, reaction time 6 h): 18.7% | Decomposition efficiency: ratio of each glycoside/aglycon within its isoflavone family (Crude diglycosidase; roasted soy flour, substrate concentration 10%, heat treatment of enzyme yes, reaction time 6 h): 45.9% | Decomposition efficiency: ratio of each glycoside/aglycon within its isoflavone family (Crude diglycosidase; roasted soy flour, substrate concentration 20%, heat treatment of enzyme no, reaction time 0 h): 46.1% | Decomposition efficiency: ratio of each glycoside/aglycon within its isoflavone family (Crude diglycosidase; roasted soy flour, substrate concentration 20%, heat treatment of enzyme no, reaction time 1 h): 44.1% | Decomposition efficiency: ratio of each glycoside/aglycon within its isoflavone family (Crude diglycosidase; roasted soy flour, substrate concentration 20%, heat treatment of enzyme no, reaction time 3 h): 35.8% | Decomposition efficiency: ratio of each glycoside/aglycon within its isoflavone family (Crude diglycosidase; roasted soy flour, substrate concentration 20%, heat treatment of enzyme no, reaction time 6 h): 28.6% | Decomposition efficiency: ratio of each glycoside/aglycon within its isoflavone family (Crude diglycosidase; roasted soy flour, substrate concentration 20%, heat treatment of enzyme yes, reaction time 6 h): 46.2% | Decomposition efficiency: ratio of each glycoside/aglycon within its isoflavone family (Crude diglycosidase; roasted soy flour, substrate concentration 30%, heat treatment of enzyme no, reaction time 0 h): 46.7% | Decomposition efficiency: ratio of each glycoside/aglycon within its isoflavone family (Crude diglycosidase; roasted soy flour, substrate concentration 30%, heat treatment of enzyme no, reaction time 1 h): 46.6% | Decomposition efficiency: ratio of each glycoside/aglycon within its isoflavone family (Crude diglycosidase; roasted soy flour, substrate concentration 30%, heat treatment of enzyme no, reaction time 3 h): 41.4% | Decomposition efficiency: ratio of each glycoside/aglycon within its isoflavone family (Crude diglycosidase; roasted soy flour, substrate concentration 30%, heat treatment of enzyme no, reaction time 6 h): 37.8% | Decomposition efficiency: ratio of each glycoside/aglycon within its isoflavone family (Crude diglycosidase; roasted soy flour, substrate concentration 30%, heat treatment of enzyme yes, reaction time 6 h): 46.1% | Decomposition efficiency of genistin family in defatted soybean (Crude diglycosidase; substrate concentration 2%, heat treatment of enzyme no, reaction time 0 h): 1.8 | Decomposition efficiency of genistin family in defatted soybean (Crude diglycosidase; substrate concentration 2%, heat treatment of enzyme no, reaction time 1 h): not detected | Decomposition efficiency of genistin family in defatted soybean (Crude diglycosidase; substrate concentration 2%, heat treatment of enzyme no, reaction time 3 h): not detected | Decomposition efficiency of genistin family in defatted soybean (Crude diglycosidase; substrate concentration 2%, heat treatment of enzyme no, reaction time 6 h): not detected | Decomposition efficiency of genistin family in defatted soybean (Crude diglycosidase; substrate concentration 2%, heat treatment of enzyme yes, reaction time 6 h): 1.5 | Decomposition efficiency of genistin family in defatted soybean (Crude diglycosidase; substrate concentration 5%, heat treatment of enzyme no, reaction time 0 h): 1.9 | Decomposition efficiency of genistin family in defatted soybean (Crude diglycosidase; substrate concentration 5%, heat treatment of enzyme no, reaction time 1 h): 0.8 | Decomposition efficiency of genistin family in defatted soybean (Crude diglycosidase; substrate concentration 5%, heat treatment of enzyme no, reaction time 3 h): 0.5 | Decomposition efficiency of genistin family in defatted soybean (Crude diglycosidase; substrate concentration 5%, heat treatment of enzyme no, reaction time 6 h): 0.3 | Decomposition efficiency of genistin family in defatted soybean (Crude diglycosidase; substrate concentration 5%, heat treatment of enzyme yes, reaction time 6 h): 1.8 | Decomposition efficiency of genistin family in defatted soybean (Crude diglycosidase; substrate concentration 10%, heat treatment of enzyme no, reaction time 0 h): 1.9 | Decomposition efficiency of genistin family in defatted soybean (Crude diglycosidase; substrate concentration 10%, heat treatment of enzyme no, reaction time 1 h): 1.3 | Decomposition efficiency of genistin family in defatted soybean (Crude diglycosidase; substrate concentration 10%, heat treatment of enzyme no, reaction time 3 h): 0.9 | Decomposition efficiency of genistin family in defatted soybean (Crude diglycosidase; substrate concentration 10%, heat treatment of enzyme no, reaction time 6 h): 0.6 | Decomposition efficiency of genistin family in defatted soybean (Crude diglycosidase; substrate concentration 10%, heat treatment of enzyme yes, reaction time 6 h): 1.7
Compound: CC(=O)OC[C@H]1O[C@@H](Oc2cc(O)c3c(=O)c(-c4ccc(O)cc4)coc3c2)[C@H](O)[C@@H](O)[C@@H]1O [acetylgenistin, 6″-O-acetylgenistin]
